# Measured values reported in publication PMC5120204, “Identification of an orally active small-molecule PTHR1 agonist for the treatment of hypoparathyroidism” (Nature Communications, 2016).
# Legend:
# TPTX rats = assay: Repeated administration study in TPTX rats, study 2 (add-on to alfacalcidol); format: in vivo, rat; settings: once-daily oral 6 mg kg^−1 plus 38 ng kg^−1 of alfacalcidol, 4 weeks
# Protocol: TPTX was carried out in 6-week-old female Crl:CD (SD) rats (Charles River Laboratories). Rats with serum Ca levels of <8.0 mg dl^−1 at 5 days after surgery were used in the following experiments. The rats were divided into four groups both in study 1 and 2, each with a similar mean value of serum Ca levels and body weight. Sample sizes were determined as described in the above single administration study. To evaluate the calcemic effects of PCO371 and hPTHs, we defined a target therapeutic range for serum Ca of 7.6–11.2 mg dl^−1, which corresponds to the low normal to normal range of serum Ca levels.
# TPTX rats were orally treated once daily (vehicle; alfacalcidol (Chugai Pharma Manufacturing) at 38 or 75 ng kg^−1; or alfacalcidol at 38 ng kg^−1 plus PCO371 at 6 mg kg^−1) for 4 weeks. Five or six TPTX rats were assigned to each dose group. The vehicle for alfacalcidol was medium-chain triglyceride (Chugai Pharma Manufacturing). Under isoflurane anaesthesia, jugular vein blood was collected immediately before and at 6 and 10 h after administration to measure serum Ca levels on day 1 (the first dosing day), 8, 14, 22 and 28. Urine was collected for 24 h by using metabolic cages on days 28 and 29. Serum and urine Ca levels were measured in the same way as in the single-dosing study.
# fetal rat long bones = assay: Fetal rat long bone cultures, 45Ca release; format: cell-based; settings: organ culture
# Protocol: Bone-resorbing activity was assessed by fetal rat long bone cultures. ^45CaCl2 (1,480 kBq, PerkinElmer) was subcutaneously injected into a pregnant Crl:CD(SD) rat (Charles River Laboratories) on its 18th day of gestation. At 48 h after the injection, the pregnant rat was euthanized, and the ulnae and radial bones were isolated from euthanized fetal rats. The long bones were placed on nylon mesh and covered with paraffin paper, and a floating culture in BGJb medium (Life Technologies) containing antibiotic–antimycotic (× 1, Life Technologies) was carried out for 3 days at 37 °C in 95% air and 5% CO2 atmosphere. On the 4th day, the medium was replaced with fresh BGJb medium containing hPTH(1–34) (1 nmol l^−1 to 1 μmol l^−1) or PCO371 (0.1 nmol l^−1 to 3 μmol l^−1) or vehicle (0.1% DMSO and 0.1 mmol l^−1 acetic acid at final concentration) and cultured for a further 4 days at 37 °C. Bone samples were then treated with 10% TCA (500 μl/bone) overnight at 37 °C. Radioactivity of the bone and the medium samples was measured. Four to five long bones were used for each individual dose. ^45Ca release (%) was calculated by the following formula (equation (4)): […]
# hPTHR1 = biological target: T1, hPTHR1 (Homo sapiens, UniProt Q03431); assay: Receptor binding assay, competition with 125I-[Aib1,3,M]–PTH(1–15) on COS-7 membranes; settings: at 100 μmol l^−1
# T1 construct: similar to that of cells expressing full-length hPTHR1; expressed in transfected cells; host or cells: COS-7 (transient, FuGENE HD)
# T1 sequence (Q03431 27-593 E93Y/D94P/K95Y/E96D/A97V/T99D/G100Y/S101A): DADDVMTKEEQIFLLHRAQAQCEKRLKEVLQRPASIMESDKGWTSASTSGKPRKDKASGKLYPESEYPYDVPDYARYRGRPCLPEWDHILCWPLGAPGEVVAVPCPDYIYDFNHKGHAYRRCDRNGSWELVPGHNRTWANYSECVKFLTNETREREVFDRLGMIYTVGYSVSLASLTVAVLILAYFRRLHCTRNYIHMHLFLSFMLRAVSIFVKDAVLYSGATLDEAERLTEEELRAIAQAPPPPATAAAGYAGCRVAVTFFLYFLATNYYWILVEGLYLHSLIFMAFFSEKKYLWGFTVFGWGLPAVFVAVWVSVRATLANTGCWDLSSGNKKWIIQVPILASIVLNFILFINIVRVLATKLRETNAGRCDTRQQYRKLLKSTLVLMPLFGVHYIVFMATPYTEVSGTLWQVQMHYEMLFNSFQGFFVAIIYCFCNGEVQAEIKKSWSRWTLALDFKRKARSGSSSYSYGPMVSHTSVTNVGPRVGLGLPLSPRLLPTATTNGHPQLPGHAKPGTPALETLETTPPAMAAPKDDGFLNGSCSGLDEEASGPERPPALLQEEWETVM
# Protocol: COS-7 cells (ATCC) were seeded into 10-cm dishes (1.7 × 10^6 cells per dish) and incubated overnight. The next day, the COS-7 cells were transfected by adding 500 μl of a mixture of hPTHR1 plasmid (10 μg per dish), FuGENE HD Transfection Reagent (40 μl per dish, Promega) and Opti-MEM I Reduced Serum Medium (450 μl per well, Life Technologies) to each dish. On the third day after the cells were seeded into the dishes, the culture medium in the dishes was discarded, each dish was washed with 5 ml of Buffer A (10 mmol l^−1 Tris-HCl, pH 7.4/4 mmol l^−1 EDTA) without protease inhibitor cocktail (PI; Nacalai Tesque, Inc.), and then 750 μl of Buffer A (10 mmol l^−1 Tris-HCl, pH 7.4/4 mmol l^−1 EDTA/1 × PI) was added to each dish. […] The protein concentration was determined using Protein Assay Dye Reagent Concentrate (Bio-Rad Laboratories, Inc). […]
# The binding of hPTH(1–34) and PCO371 free base to hPTHR1 was evaluated by competition assay using ^125I-[Aib^1,3,M]PTH(1–15) as the competing entity. […] The dried filter was recovered, and the ^125I radioactivity was measured using a gamma counter. […] Total ^125I count rates (cpm) measured by the gamma counter were used as the primary data. Binding to hPTHR1 was evaluated by calculating the per cent specific binding from the following formula using Microsoft Office Excel 2007.
# Percentage specific binding was calculated by the following formula: equation (1) […]
compound,measurement,setting,value
"Cc1cc(N2C(=O)NC(=O)C2(C)C)cc(C)c1CCS(=O)(=O)N1CCC2(CC1)N=C(c1ccc(OC(F)(F)F)cc1)NC2=O [PCO371, 1-{3,5-dimethyl-4-[2-({4-oxo-2-[4-(trifluoromethoxy)phenyl]-1,3,8-triazaspiro[4.5]dec-1-en-8-yl}sulfonyl)ethyl]phenyl}-5,5-dimethylimidazolidine-2,4-dione]",serum Ca,TPTX rats,comparable with that by 75 ng kg^−1 of alfacalcidol alone
same,urinary Ca excretion,TPTX rats,did not elevate urinary Ca excretion
same,concentration able to stimulate 45Ca release from prelabeled bones,fetal rat long bones,≥ 1 µmol/L
same,"inhibition of the binding of 125I-[Aib1,3,M]–PTH(1–15)",hPTHR1,almost completely
